Source: patent publication US8026218B2, “Bifunctional analgesic compounds for opioid receptor agonists and neurokinin-1 receptor antagonists” (The University of Arizona, priority 2006, dated 2011)
Read-outs that look alike come from different tables or passages of the source. Peptide text beside a SMILES is read from it.

How the values were obtained:
[1] = In vitro stability in rat plasma at 37° C.; format: in vitro ADME; settings: rat, rat plasma, read-out: half life (T1/2) in rat plasma (converted)
Procedure: The derivative compounds were tested for their metabolite stability. The compounds were incubated in rat plasma at 37° C., and aliquots were withdrawn at various time points and analyzed by HPLC to determine the concentration of remaining compound derivatives (FIGS. 15-16, 36, and 47-48).
In Vitro Stability of compound derivatives in Rat Plasm (Yamamoto, 2007, J. Am. Chem. Soc. submitted). Stock solution of compounds (50 mg/mL in DMSO) were diluted 1000-fold into rat plasma (Lot 24927, Pel-Freez Biologicals, Rogers, Ak.) to result in an incubation concentration of 50 μg/mL. All samples were incubated at 37° C. for 6 h, and 200 μL of aliquots were withdrawn at 1 h, 2 h, 4 h and 6 h. […] The samples were run in triplicate. Discussion.

[2] = biological target: T1, rat μ opioid receptors (rMOR) (Rattus norvegicus, UniProt P33535); experiment: Radioligand competition binding, [3H]DAMGO, rMOR membranes
T1 construct: expressed in transfected cells; host or cells: HN9.10 neuroblastoma cell line, pCDNA3, neomycin-selected clones

δ opioid receptors (MVD) = biological target: T2, δ opioid receptors (MVD) (Mus musculus, UniProt P32300); experiment: Mouse isolated vas deferens (MVD) assay, opioid agonist
T2 construct: from tissue; host or cells: mouse (ICR) isolated vas deferens

[3] = biological target: T3, human δ opioid receptors (hDOR) (Homo sapiens, UniProt P41143); experiment: Radioligand competition binding, [3H]DPDPE, hDOR membranes
T3 construct: expressed in transfected cells; host or cells: HN9.10 neuroblastoma cell line, pCDNA3, neomycin-selected clones

rat NK1 (rNK1) receptor = biological target: T4, rat NK1 (rNK1) receptor (Rattus norvegicus, UniProt P14600); experiment: Radioligand competition binding, [3H]substance P, rNK1/CHO membranes; settings: for IC50: LogIC50, rNK1, [3H]Substance P, logarithm of IC50 (negative), CHO cell membranes
T4 construct: expressed in transfected cells; host or cells: CHO (rNK-1/CHO cell line from Dr. James Krause)

[4] = biological target: T5, Substance P receptors (guinea pig NK1) (Cavia porcellus, UniProt P30547); experiment: Guinea pig isolated ileum (GPI) assay with substance P stimulation in presence of 1 μM naloxone
T5 construct: from tissue; host or cells: guinea pig (Hartley) ileum LMMP, 1 μM naloxone present
Procedure: Testing stopped at 1 mM concentrations of the test compound.
Analysis of GPI and MVD assays. For opioid data analysis, percentage inhibition was calculated using the average tissue contraction height for 1 min preceding the addition of the agonist divided by the contraction height 3 min after exposure to the dose of agonist. […] IC50 and Emax estimates were determined by computerized nonlinear least-squares analysis (the pharmacological statistics package FlashCalc: Dr. Michael Ossipov, University of Arizona, Tucson, Ariz.). […] A50 values represent the mean of not less than 4 tissues. A50 and Emax estimates were determined by computerized nonlinear least-squares analysis (FlashCalc).

[5] = biological target: T1, rat μ opioid receptors (rMOR); experiment: biochemical; format: biochemical
μ opioid receptors (GPI) = experiment: Guinea pig isolated ileum (GPI) assay, opioid agonist;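 as to all read-outs here: inhibition of electrically evoked contractions (0.1 Hz, 0.4 msec, supramaximal voltage) in organ baths at 37 °C, contraction height 3 min after each cumulative dose versus the 1 min before dosing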; settings: for Opioid agonist GPI (μ), % inh.: Table 22, no antagonist activity observed at the tested concentration; for Opioid agonist GPI (μ), % inh. / GPI/LMMP opioid(mu) agonist, % at 1 uM: at 1 uM; for agonist effect in the functional assay using GPI: at the concentration of 1 μM, words
Procedure: Guinea Pig Isolated Ileum Assay. […] These tissues were tied to gold chains with suture silk and mounted between platinum wire electrodes in 20 mL organ baths at a tension of 1 g and bathed in oxygenated (95:5 O2:CO2) Kreb's bicarbonate buffer at 37° C. and stimulated electrically (0.1 Hz, 0.4 msec duration) at supramaximal voltage. Following an equilibration period, compounds were added cumulatively to the bath in volumes of 14-60 μL until maximum inhibition was reached. A baseline PL-017 was constructed to determine tissue integrity and allow calculation of antagonist activity before opioid analog testing began.
For opioid data analysis, percentage inhibition was calculated using the average tissue contraction height for 1 min preceding the addition of the agonist divided by the contraction height 3 min after exposure to the dose of agonist. […] IC50 and Emax estimates were determined by computerized nonlinear least-squares analysis (the pharmacological statistics package FlashCalc: Dr. Michael Ossipov, University of Arizona, Tucson, Ariz.). […] A50 values represent the mean of not less than 4 tissues. A50 and Emax estimates were determined by computerized nonlinear least-squares analysis (FlashCalc).

[6] = biological target: T3, human δ opioid receptors (hDOR); experiment: [35S]GTP-γ-S binding assay, hDOR; format: biochemical
[7] = biological target: T6, human NK1 receptor (hNK1) (Homo sapiens, UniProt P25103); experiment: Radioligand competition binding, [3H]-Substance P, hNK1
T6 construct: expressed in transfected cells

[8] = electrically stimulated isolated tissue, read-out: MVD (δ), IC50
[9] = Table 39, read-out: Affinity rNK1 (Ki; nM)
[10] = Table 21, net total bound/basal binding × 100, read-out: Emax (%), rMOR
[11] = Table 39, read-out: GTP binding rMOR EC50
[12] = Table 39, read-out: GTP binding rMOR Emax
[13] = net total bound/basal binding × 100, read-out: Emax, rMOR, [35S]GTP-γ-S binding
[14] = Table 21, HN9.10 cell, read-out: EC50 (nM), hDOR
[15] = Table 39, read-out: GTP binding hDOR EC50
[16] = Table 39, read-out: GTP binding hDOR Emax
[17] = Table 21, net total bound/basal binding × 100, read-out: Emax (%), hDOR

T5 sequence (P30547 whole entry): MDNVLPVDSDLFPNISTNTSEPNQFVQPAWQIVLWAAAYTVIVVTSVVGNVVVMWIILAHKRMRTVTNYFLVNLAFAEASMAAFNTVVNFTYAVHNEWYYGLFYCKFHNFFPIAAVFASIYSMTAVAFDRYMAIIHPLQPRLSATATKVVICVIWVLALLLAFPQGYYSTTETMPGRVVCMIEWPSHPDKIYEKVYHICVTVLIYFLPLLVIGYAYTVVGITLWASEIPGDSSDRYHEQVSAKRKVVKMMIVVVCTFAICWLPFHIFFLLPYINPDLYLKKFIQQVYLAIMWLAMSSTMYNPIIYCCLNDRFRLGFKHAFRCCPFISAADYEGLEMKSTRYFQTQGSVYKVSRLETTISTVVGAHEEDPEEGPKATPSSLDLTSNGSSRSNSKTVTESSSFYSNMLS
T2 sequence (P32300 whole entry): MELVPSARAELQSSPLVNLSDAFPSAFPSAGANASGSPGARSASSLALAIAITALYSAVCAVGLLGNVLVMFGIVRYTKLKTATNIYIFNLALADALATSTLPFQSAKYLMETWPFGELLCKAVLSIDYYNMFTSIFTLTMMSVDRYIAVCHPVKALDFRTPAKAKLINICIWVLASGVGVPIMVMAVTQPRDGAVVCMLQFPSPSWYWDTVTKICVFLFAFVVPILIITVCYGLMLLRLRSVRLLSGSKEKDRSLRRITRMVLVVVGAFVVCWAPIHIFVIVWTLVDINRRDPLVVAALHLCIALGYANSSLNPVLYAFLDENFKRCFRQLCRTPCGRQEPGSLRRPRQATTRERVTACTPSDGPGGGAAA
T6 sequence (P25103 whole entry): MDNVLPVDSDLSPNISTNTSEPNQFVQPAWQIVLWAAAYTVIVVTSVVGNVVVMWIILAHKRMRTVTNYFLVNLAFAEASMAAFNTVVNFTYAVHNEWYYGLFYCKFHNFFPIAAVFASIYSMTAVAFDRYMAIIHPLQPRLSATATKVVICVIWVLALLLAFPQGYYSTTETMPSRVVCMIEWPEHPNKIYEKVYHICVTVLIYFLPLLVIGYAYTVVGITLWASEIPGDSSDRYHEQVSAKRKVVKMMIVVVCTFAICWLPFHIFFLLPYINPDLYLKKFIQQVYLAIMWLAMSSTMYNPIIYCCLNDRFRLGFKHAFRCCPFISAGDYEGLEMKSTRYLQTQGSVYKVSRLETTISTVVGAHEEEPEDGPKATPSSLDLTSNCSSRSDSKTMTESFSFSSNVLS
T4 sequence (P14600 whole entry): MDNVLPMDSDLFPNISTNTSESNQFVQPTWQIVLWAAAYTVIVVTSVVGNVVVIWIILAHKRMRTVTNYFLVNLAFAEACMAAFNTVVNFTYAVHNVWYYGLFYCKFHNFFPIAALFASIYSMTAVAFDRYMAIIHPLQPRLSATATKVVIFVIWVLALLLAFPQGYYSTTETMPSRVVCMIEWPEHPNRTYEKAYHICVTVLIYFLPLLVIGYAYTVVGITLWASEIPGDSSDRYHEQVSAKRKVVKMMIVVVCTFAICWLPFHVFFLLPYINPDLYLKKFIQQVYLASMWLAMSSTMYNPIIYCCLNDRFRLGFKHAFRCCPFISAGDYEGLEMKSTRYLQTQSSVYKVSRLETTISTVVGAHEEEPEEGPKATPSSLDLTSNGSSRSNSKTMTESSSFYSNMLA
T1 sequence (P33535 whole entry): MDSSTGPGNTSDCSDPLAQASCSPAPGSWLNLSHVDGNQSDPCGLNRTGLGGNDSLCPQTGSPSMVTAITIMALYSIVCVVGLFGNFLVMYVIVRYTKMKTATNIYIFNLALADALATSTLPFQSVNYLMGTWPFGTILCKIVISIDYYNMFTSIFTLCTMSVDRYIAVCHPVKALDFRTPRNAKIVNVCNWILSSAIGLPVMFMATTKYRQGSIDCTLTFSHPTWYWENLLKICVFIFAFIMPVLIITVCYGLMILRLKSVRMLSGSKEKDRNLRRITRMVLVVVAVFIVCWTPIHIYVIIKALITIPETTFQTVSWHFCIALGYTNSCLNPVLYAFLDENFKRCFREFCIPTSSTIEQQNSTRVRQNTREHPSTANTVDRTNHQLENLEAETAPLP
T3 sequence (P41143 whole entry): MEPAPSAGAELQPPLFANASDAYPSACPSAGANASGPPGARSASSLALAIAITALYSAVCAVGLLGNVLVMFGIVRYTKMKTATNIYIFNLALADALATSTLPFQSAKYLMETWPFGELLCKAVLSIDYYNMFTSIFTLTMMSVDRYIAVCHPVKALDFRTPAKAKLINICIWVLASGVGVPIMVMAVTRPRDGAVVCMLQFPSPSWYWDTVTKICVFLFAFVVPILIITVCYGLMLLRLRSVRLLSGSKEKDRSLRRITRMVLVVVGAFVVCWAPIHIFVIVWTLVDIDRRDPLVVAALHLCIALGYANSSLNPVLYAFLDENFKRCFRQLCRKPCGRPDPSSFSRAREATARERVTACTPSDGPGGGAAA

Compound	half-life at 50 μg/mL [1] [h]	IC50 [2] [nM]	Ki ([2]; read-out: Ki, rMOR, [3H]DAMGO) [nM]	IC50 (δ opioid receptors (MVD); [8]) [nM]	IC50 [3] [nM]	IC50 (rat NK1 (rNK1) receptor; Table 20) [nM]	Ki (rat NK1 (rNK1) receptor; [9]) [nM]	Emax [5, 10] [%]	EC50 [5, 11] [nM]	Emax [5, 12] [%]	Emax [5, 13] [%]	EC50 [6, 14] [nM]	EC50 [6, 15] [nM]	Emax [6, 16] [%]	Opioid agonist GPI (μ), % inh. (μ opioid receptors (GPI)) [% inh. at 1 uM^d]	GPI/LMMP opioid(mu) Antagonist (μ opioid receptors (GPI); Table 39)	GPI/LMMP opioid(mu) agonist, % at 1 uM (μ opioid receptors (GPI); Table 39) [% at]	agonist effect in the functional assay using GPI (μ opioid receptors (GPI))	Emax [6, 17] [%]	also measured
CC(C)C[C@H](NC(=O)[C@@H]1CCCN1C(=O)[C@H]1CSSC[C@@H](NC(=O)[C@@H](N)Cc2ccc(O)cc2)C(=O)NCC(=O)N[C@@H](Cc2ccccc2)C(=O)N1)C(=O)N[C@@H](Cc1c[nH]c2ccccc12)C(=O)NCc1cc(C(F)(F)F)cc(C(F)(F)F)c1 [TY037, [D-Cys^2, D-Cys^5]TY027]	3.7	126	52	8.3	15.8	126	45.5	12	52.9	8	< 20	14	98.2	26	–	–	–	–	–	Ki ([3]; Table 39, read-out: Affinity hDOR (Ki; nM)): 7.8 nM; Ki ([3]; read-out: Ki (nM), hDOR, [3H]DPDPE, Table 20, HN9.10 cell membranes): 7.8 nM; Substance P antagonist, GPI, Ke ([4]; in the presence of 1 μM naloxone): 4.7 nM; IC50 (μ opioid receptors (GPI); Table 39, read-out: GPI/LMMP opioid(mu) agonist (IC50; nM)): 284 nM; IC50 (μ opioid receptors (GPI); electrically stimulated isolated tissue, read-out: GPI (μ), IC50): 280 nM
CCCC[C@@H]1NC(=O)[C@H](Cc2ccccc2)NC(=O)CNC(=O)[C@H](NC(=O)[C@@H](N)Cc2ccc(O)cc2)CSSC[C@H](C(=O)N[C@@H](Cc2c[nH]c3ccccc23)C(=O)NCc2cc(C(F)(F)F)cc(C(F)(F)F)c2)NC(=O)[C@@H]2CCCN2C1=O [TY038, [D-Cys^2, D-Cys^7]TY027] (HELM PEPTIDE1{Y.[dC].G.F.[Nle].P.[dC].W.[FC(F)(F)c1cc(CN[*:1])cc(C(F)(F)F)c1]}$PEPTIDE1,PEPTIDE1,2:R3-7:R3$$$V2.0; N-terminus assumed)	> 6	1.58	160	19	126	20	7.11	–	–	–	–	–	14	87	3	none	3	nearly no agonist effect	87	Ki [2]: 156 nM; Ki(μ)/Ki(δ) ([2]; Table 20, ratio rMOR Ki / hDOR Ki): 2.9; IC50 (δ opioid receptors (MVD); Table 39, read-out: MVD opioid(delta) agonist (IC50; nM)): 18.9 nM; Ki [3]: 55.5 nM; Ki(hNK1)/Ki(rNK1) (rat NK1 (rNK1) receptor; Table 20, species ratio): 28; Ki (rat NK1 (rNK1) receptor; read-out: Ki, rNK1): 7.1 nM; Kb ([4]; Substance P antagonist, GPI, Ke (nM), Table 22, in the presence of 1 μM naloxone): 12 ± 1.4 nM; GPI/LMMP SP Agonist (IC50; nM) ([4]; Table 39, at 100 nM): none; EC50 ([5]; LogEC50, rMOR): 20 nM; Emax ([5]; read-out: Emax (%), rMOR): 12%; Emax ([5]; read-out: Emax, rMOR, [35S]GTP-γ-S binding): < 20%; EC50 ([5]; read-out: GTP binding rMOR EC50): 21.7 nM; Emax ([5]; read-out: GTP binding rMOR Emax): 11%; IC50 [7]: 0.501 nM; Ki [7]: 0.24 nM; Ki ([7]; read-out: Ki, hNK1): 0.25 nM; Emax ([6]; net total bound/basal binding × 100, read-out: Emax, hDOR, [35S]GTP-γ-S binding): 87%
CC(C)C[C@H](NC(=O)[C@@H]1CCCN1C(=O)[C@@H]1CSSC[C@@H](NC(=O)[C@@H](N)Cc2ccc(O)cc2)C(=O)NCC(=O)N[C@@H](Cc2ccccc2)C(=O)N1)C(=O)N[C@@H](Cc1c[nH]c2ccccc12)C(=O)NCc1cc(C(F)(F)F)cc(C(F)(F)F)c1 [TY039]	> 6	398	200	73	25.1	1580	–	17	118	20	< 20	0.9	50.9	37	10	none	10.1	nearly no agonist effect	37	EC50 ([5]; Table 21, HN9.10 cell, read-out: EC50 (nM), rMOR): 118 nM; EC50 ([5]; Table 21, logarithm of EC50 (negative), HN9.10 cell, read-out: LogEC50, rMOR (converted)): 126 nM
